Assay results: patent publication US7872153B2, “Salt of aliskiren with sulfuric acid” (Novartis AG, priority 2006, dated 2011)

Legend:
[1] = dynamic vapour sorption (DVS): water absorption or loss as a function of relative humidity; type: physicochemical; conditions: for change in mass in % (sorption) / change in mass in % (desorption): 25° C., 9.5 mg sample, 4 hours; for change in mass in % (sorption): cycle 0-95%; for change in mass in % (desorption): cycle 40-0
Source text: A clear characterisation of this property is achieved by means of isothermal measurements over predetermined time intervals and predetermined relative humidity using dynamic vapour sorption (DVS from the company Surface Measurement Systems LTD, Marlow, Buckinghamshire, UK). […] The following cycles of changes in relative humidity are shown: 40-0; 0-95% relative humidity: The measurement error of this sorption method based on thermogravimetry is about 0.1%.

[2] = hygroscopicity of the drug substance (statement); type: physicochemical; conditions: background statement

SMILES: COCCCOc1cc(C[C@@H](C[C@H](N)[C@@H](O)C[C@H](C(=O)NCC(C)(C)C(N)=O)C(C)C)C(C)C)ccc1OC.O=S(=O)(O)O [hydrogen sulfate salt of aliskiren]
- water absorption or loss ([1]; above 40% relative humidity): significant water absorption or loss
- water uptake compared with the hemifumarate ([1]; below 40% relative humidity): does not take up as much water as the hemifumarate
- change in mass in % (sorption) ([1]; relative humidity 0%): 0.00%
- change in mass in % (desorption) ([1]; relative humidity 0%): 0.00%
- change in mass in % (sorption) ([1]; relative humidity 10%): 0.46%
- change in mass in % (desorption) ([1]; relative humidity 10%): 0.88%
- change in mass in % (sorption) ([1]; relative humidity 20%): 0.84%
- change in mass in % (desorption) ([1]; relative humidity 20%): 1.25%
- change in mass in % (sorption) ([1]; relative humidity 30%): 1.31%
- change in mass in % (desorption) ([1]; relative humidity 30%): 1.67%
- change in mass in % (sorption) ([1]; relative humidity 40%): 1.98%
- change in mass in % (desorption) ([1]; relative humidity 40%): 2.20%
- change in mass in % (sorption) ([1]; relative humidity 50%): 3.39%
- change in mass in % (sorption) ([1]; relative humidity 60%): 7.07%
- change in mass in % (sorption) ([1]; relative humidity 70%): 8.88%
- change in mass in % (sorption) ([1]; relative humidity 80%): 13.43%
- change in mass in % (sorption) ([1]; relative humidity 90%): 25.83%
- change in mass in % (sorption) ([1]; relative humidity 95%): 40.62%

SMILES: COCCCOc1cc(C[C@@H](C[C@H](N)[C@@H](O)C[C@H](C(=O)NCC(C)(C)C(N)=O)C(C)C)C(C)C)ccc1OC [aliskiren, 2(S),4(S),5(S),7(S)—N-(3-amino-2,2-dimethyl-3-oxopropyl)-2,7-di(1-methylethyl)-4-hydroxy-5-amino-8-[4-methoxy-3-(3-methoxy-propoxy)phenyl]-octanamide]
- hygroscopicity [2]: highly hygroscopic
